In patent US5141957A, “1,4-bis-(amino-hydroxyalkylamino)-anthraquinones for inhibiting protein kinase C” (Sphinx Pharmaceuticals Corporation, priority 1990, dated 1992):
Counter-ions that a name gives are not always drawn.

Key:
[1] = test system: MCF-7 human breast tumor cell line; experiment: Human tumor cell growth inhibition (3H-thymidine incorporation), MCF-7; format: cell-based; conditions: MCF7, inhibition of 3H-thymidine incorporation, 18-24 hrs + 4 hrs
Source text: (§1) MCF-7 a human breast tumor cell line and MCF-7/ADR an adriamycin resistant line of MCF-7 cells were obtained from the National Cancer Institute, Frederick, Md. CEM cells (ATCC accession number CCL 119) were obtained from the American Type Culture Collection, Rockville, Md. Human tumor cells are trypsinized (0.05% trypsin, GIBCO), counted with a hemacytometer and seeded at a concentration of 10,000 cells/well in a 96 well microtiter plate. After allowing cells to attach to the surface overnight, the culture medium is aspirated and replaced with 100 μl of fresh medium. Test agents are diluted to determine dose response at 2× final concentration and added in quadruplicate at 100 μl/well to bring the total volume of each well to 200 μl . The microtiter plate is then incubated at 37° C. 5% CO2 overnight (18-24 hrs) before ^3 H-thymidine is added at a concentration of 0.5 μCi/well in 50 μl culture medium. The plate is incubated again for 4 hrs under the same conditions as above. Supernatant is then aspirated and 50μl trypsin (0.05%, GIBCO) is added to each well. Cells are checked microscopically to determine detachment from surfaces, and plates are then harvested with a cell harvester (PHD, Cambridge Technology, Inc.) Filter papers corresponding to wells are placed in scintillation vials and counted to determine the amount of ^3 H-thymidine incorporated by the cells. […]

CEM cells = experiment: Human tumor cell growth inhibition (3H-thymidine incorporation), CEM; format: cell-based; conditions: CCRF-CEM, inhibition of 3H-thymidine incorporation, 18-24 hrs + 4 hrs
Source text: as §1

[2] = test system: MCF-7/ADR adriamycin resistant line of MCF-7 cells; experiment: Human tumor cell growth inhibition (3H-thymidine incorporation), MCF-7/ADR; format: cell-based; conditions: NCI/ADR-RES, inhibition of 3H-thymidine incorporation, 18-24 hrs + 4 hrs
Source text: as §1

Protein kinase C (PKC) = experiment: Protein kinase C inhibition (histone H1 phosphorylation, 32P-ATP); format: biochemical; conditions: histone H1 substrate; enzyme from rat brain; 20 μM ATP; pH 7.5; 10 min
Method: The protein kinase C (PKC) assay is designed to duplicated the in vivo conditions required for protein kinase C function. Therefore, pH, salt and cofactor concentrations are similar to physiologic levels. Histone Hl (lysine rich) is used in the assay as the phosphorylation acceptor protein because it is readily available and serves as a good substrate for protein kinase C. The enzyme is prepared from rat brain and is purified to apparent homogeneity as determined by a single band on silver stained SDS-polyacrylamide. Studies on the mechanism of regulation of protein kinase C by phospholipids, DAG and Ca^+2 have been hampered by the physical properties of the lipid cofactors. In the screening assay, phosphatidylserine (PS) and DAG are co-sonicated to form unilamellar and multilamellar vesicles. The concentration of lipids in the assay are suboptimal to maximize the detection potential of the assay for inhibitors. Potential inhibitor compounds are added to the assay in dimethylsulfoxide at three concentrations to give final inhibitor concentrations of 4.3, 43 and 218 μM, respectively. The assay is started with the addition of enzyme and stopped after 10 min by the addition of 25 % trichloroacetic acid (TCA) and 1.0 mg/ml bovine serum albumin (BSA). […] The amount of phosphorylation is determined by the radioactivity measured in a scintillation counter. […]

[3] = test system: PMA-stimulated neutrophils; experiment: Neutrophil superoxide anion (O2-) release assay; format: cell-based; conditions: Homo sapiens, 0.5 h, 37° C., 30 min, cytochrome c reduction at 550 nm, read-out: IC50, PMA-stimulated O2- production (respiratory burst)
Method: Neutrophils are isolated form whole blood collected from human volunteers. All reagent materials are obtained from Sigma Chemical Company with the exception of isotonic saline (Travenol Laboratories, Inc., Deerfield, Ill.) and lymphocyte separation medium (Organon Teknika, Durham, N.C.).
Whole blood is drawn and mixed with sodium heparin (final conc. 10 units/ml) to prevent clotting. An equal volume of dextran (3.0%) in isotonic saline is added, mixed, and allowed to settle for 30 min to bind red blood cells (RBC). Supernatant is removed, underlayered with lymphocyte separation medium and centrifuged for 40 min at 400 ×g in a centrifuge (Beckman GPR, Norcross, Ga.). The pellet is alternately resuspended in 0.2% and 1.6% NaCl to lyse RBCs before washing with Hank's Balanced Salt Solution (HBSS). […]
The neutrophil cell concentration is adjusted to 2×10^6 cells/ml with HBSS before adding 0.8 ml cells to 12×75 mm polypropylene test tubes (Fisher Scientific). […] Optical density (OD) of cytochrome c is read in a spectrophotometer (Shimadzu) at 550 nm. […] Reducing cytochrome c increases its absorbance, and the change in OD of cytochrome c is proportional to the amount of O2^- produced by PMA stimulation. […] Inhibition is expressed as IC50 μM and is the amount of test compound that will inhibit fifty per cent of the PMA-stimulated respiratory outburst, i.e. O2^- production.

[4] = test system: Proliferating keratinocytes (NHEK cells); experiment: Human keratinocyte inhibition (3H-thymidine incorporation); format: cell-based; conditions: second passage, inhibition of 3H-thymidine incorporation
Method: as §1, with “Human” for “MCF-7 a human breast tumor cell line and MCF-7/ADR an adriamycin resistant line of MCF-7 cells were obtained from the National Cancer Institute, Frederick, Md. CEM cells (ATCC accession number CCL 119) were obtained from the American Type Culture Collection, Rockville, Md. Human”, “Supernatant is then aspirated and 50μl trypsin (0.05%, GIBCO) is added to each well.” left out
Proliferating keratinocytes (NHEK cells purchased from Clonetics, Inc., San Diego, Calif.) in second passage were grown in Keratinocyte Growth Medium (KGM) (Clonetics, Inc.) Cells are trypsinized (0.025% trypsin, Clonetics), counted with a hemacytometer (Scientific Products), and seeded at a concentration of 2,500 cells/well in a 96 well microtiter plate. […]

IC50 [1] [µM]	IC50 (CEM cells) [µM]	IC50 [2] [µM]	IC50 (Protein kinase C (PKC)) [µM]	IC50 [3] [µM]	SMILES	IC50 [4] [µM]
2.4	5.6	> 25	199	–	CCCNCC(O)CNc1ccc(NCC(O)CNCCC)c2c1C(=O)c1ccccc1C2=O (stereo not shown) [Compound 1a, 1,4-Bis-(3-Propylamino-2-Hydroxypropylamino)-9, 10 anthracenedione hydrochloride]	–
2.7	2.7	17	43	3.9	O=C1c2ccccc2C(=O)c2c(NCC(O)CNCc3ccccc3)ccc(NCC(O)CNCc3ccccc3)c21 (stereo not shown) [Compound 1b, 1,4-Bis-(3-Benzylamino-2-Hydroxypropylamino)-9, 10 anthracenedione. Hydrochloride salt]	4
